SMILES strings stand for the structures.

The test system of one assay is human PDAC cell lines. Nature of the assay: cell viability response curves with increasing concentrations. In kind it is cell-based.
The next assay addresses T1, LXR proteins (Homo sapiens, UniProt P55055).
T1 construct: expression of LXR proteins in different pancreatic cancer cell lines following long-term treatments; endogenous in cells; host or cells: pancreatic cancer cell lines (BxPC-3, MIA PaCa-2, PANC-1 named elsewhere)
In words: LXR protein levels after long-term treatment of pancreatic cancer cells. In kind it is cell-based. The settings on record: long-term treatments. As for the experimental part: (§1) To elucidate mechanisms of inverse agonism by the novel ligands, TR-FRET experiments were conducted to determine the effects of 1E5 and 3A4 on the recruitment of NR co-activators and co-repressors. […] In addition to their functions as inverse agonists, extended treatments with 1E5 and 3A4 also destabilized or decreased LXR proteins.

For a further assay, the system named is LXR in MDA-MB-231 cells. Nature of the assay: western blot of LXR protein levels. In kind it is cell-based. The text has this:
(§2) The inhibitory effects of LXR ligands in breast cancer cells have been shown previously. […] The observed decreases in LXR protein levels were not affected by proteasome inhibitor MG132.

In assay [1] the test system is LXR proteins in MCF-7 cells. Nature of the assay: western blot of LXR protein levels. In kind it is cell-based.
Text: as §2

A further assay has as its system pancreatic cancer cells. Nature of the assay: metabolomic analysis using mass spectroscopy in pancreatic cancer cells. In kind it is cell-based, human. As for the experimental part: To further characterize the mechanisms of action of novel LXR modulators 1E5 and 3A4, metabolomic and transcriptomic analysis of pancreatic cancer cells were conducted in response to treatment. […] PDAC tumors have altered metabolism to support its growth and survival. Previous studies have reported that Kras upregulates the non-canonical use of glutamine to maintain NADPH/NADP+ ratio which in turn regulates redox homeostasis. This unconventional use of glutamine by PDAC cells fuel cancer cell proliferation and survival. Glutamine metabolism in PDAC has two unique functions: 1. Glutamine-derived Glutamate is used for glutathione (GSH) biosynthesis. 2. Glutamine facilitates generation of reducing equivalents in the form of NADPH. In PDAC mitochondria, glutamine is converted to glutamate by glutaminase enzyme (GLS1). This glutamine derived glutamate is conventionally converted to alpha-ketoglutarate by glutamate dehydrogenase (GLUD1) to fuel citric acid cycle. However, in PDAC cells glutamate is converted to aspartate in cytosol which is converted to malic acid and NADPH is produced during this process. This process is essential to maintain redox homeostasis in the tumor. However, this non-canonical use of glutamine is dispensable in non-malignant cells. Therefore, targeting GLS1 to decrease the bioavailability of glutamate to act as source of nitrogen and carbon for the synthesis of amino acids and nucleic acids is a viable strategy to target PDAC tumors. […] The effect of 1E5 is similar to BPTES, a potent GLS1 inhibitor.
TCA cycle intermediates act as anaplerotic substrate for gluconeogenesis and lipogenesis. […] GOT2 converts glutamine-derived glutamate to alpha-KG. During this process oxaloacetate is converted to aspartate which is required to maintain redox homeostasis. Studies have shown that inhibition of GOT2 in PDAC promotes senescence.
To determine if 1E5 and 3A4 can induce apoptosis, PDAC cells were treated with the LXR ligands and subjected to pro-apoptotic caspase cleavage analysis. […] Metabolomic profiling following treatments with the two ligands indicated the activation of two distinct cell death mechanisms. Ferroptosis is a non-apoptotic form of cell death which is characterized by accumulation of lipid peroxides by loss of glutathione peroxidase 4 (GPX4) activity. It can also be induced by accumulation of intracellular iron and depletion of reduced glutathione (GSH). GPX4 is an anti-oxidant enzyme involved in conversion of PUFA peroxides to PUFA alcohols. GSH is a critical cofactor of GPX4 and acts as a reducing agent to reduce the lipid peroxides. Therefore, direct inhibition of GPX4 activity or reduction in GSH levels trigger ferroptosis. The second mechanism of inducing ferroptosis is accumulation of polyunsaturated fatty acids (PUFAs) in cells. Studies have shown that PUFAs are the most susceptible lipids to peroxidation.
Expression profiles of ferroptosis genes in RNAseq data following 1E5 treatment were also consistent with its pro-ferroptotic actions. […] Polyamines are amino-acid derived polycationic alkylamines that are required for the growth of cells. SAT1 catalyzes the acetylation of spermidine and spermine to form N-acetylspermidine and N-acetylspermine respectively. […] SAT1 induces ferroptosis by upregulating the peroxidation of PUFA arachidonic acid. Ceramides are sphingolipids consisting of sphingosine and fatty acid acyl chain. Cellular stress leads to upregulation of ceramide synthesis which mediate caspase-dependent apoptosis. Accumulation of ceramides/hexosylceramides in the mitochondria leads to the formation of channel like structures in the mitochondrial outer membrane which increases the permeability of pro-apoptotic proteins such as cytochrome c. ER stress is also known to activate de-novo synthesis of ceramides and induce apoptosis by increasing the flow of Ca ions and upregulating the unfolded protein stress response. […]

For another assay, the system named is PDAC cells. In words: enzymatic assay of glutamate levels. The assay is classed as cell-based, human. As for the experimental part:
To further characterize the mechanisms of action of novel LXR modulators 1E5 and 3A4, metabolomic and transcriptomic analysis of pancreatic cancer cells were conducted in response to treatment. […] PDAC tumors have altered metabolism to support its growth and survival. Previous studies have reported that Kras upregulates the non-canonical use of glutamine to maintain NADPH/NADP+ ratio which in turn regulates redox homeostasis. This unconventional use of glutamine by PDAC cells fuel cancer cell proliferation and survival. Glutamine metabolism in PDAC has two unique functions: 1. Glutamine-derived Glutamate is used for glutathione (GSH) biosynthesis. 2. Glutamine facilitates generation of reducing equivalents in the form of NADPH. In PDAC mitochondria, glutamine is converted to glutamate by glutaminase enzyme (GLS1). This glutamine derived glutamate is conventionally converted to alpha-ketoglutarate by glutamate dehydrogenase (GLUD1) to fuel citric acid cycle. However, in PDAC cells glutamate is converted to aspartate in cytosol which is converted to malic acid and NADPH is produced during this process. This process is essential to maintain redox homeostasis in the tumor. However, this non-canonical use of glutamine is dispensable in non-malignant cells. […]

The test system of another assay is MCF-7. Nature of the assay: expression of LXR target genes in breast cancer cells. The assay is classed as cell-based. The note with it: MCF-7, ER-positive.
Text: as §2

The test system of the next assay is MDA-MB-231. The description is as above. In kind it is cell-based. The settings on record: MDA-MB-231, triple-negative.
Text: as §2

For assay [2], the system named is LXR target genes SREBF1c, ABCA1, and ABCG1. Nature of the assay: expression of LXR target genes in pancreatic cancer cell lines. In kind it is cell-based, human.
Text: To characterize the activity of the newly discovered ligands, the expression of LXR target genes SREBF1c, ABCA1, and ABCG1 was examined following treatment with vehicle, synthetic agonist GW3965, and Compounds 1E5 and 3A4. […] Basal expression of SREBF1c, the canonical LXR target gene involved in the regulation of glucose and lipid metabolism, was disrupted by the addition of novel LXR ligands, whereas their expression was induced following treatment with synthetic agonist GW3965 in all three pancreatic cancer cell lines tested, whereas the effects on ABCA1 and ABCG1 varied between the two novel ligands and across the cell lines.
as §1

For another assay, the system named is PDAC cell lines. In words: tetrazolium salt reduction (WST) assay in PDAC cell lines. In kind it is cell-based, human. The note with it: WST screen, three human pancreatic cancer cell lines. Here is the method:
To determine the effects of LXR ligands on PDAC cell proliferation, cells were treated with synthetic LXR agonist GW3965 and live cells were quantified using trypan blue exclusion assays. […] FIGS. 8A, 8B, and 8C show dose-dependent decreases in cell proliferation in BxPC-3, Mia-PaCa-2, and PANC-1, respectively upon treatment with increasing GW3965 concentrations. […] Clonogenic assays were also employed to evaluate the effects of long-term LXR ligand treatment on cell proliferation and colony formation. […] These findings indicate that LXRs are involved in PDAC cell proliferation and targeting LXRs with ligands perturb their normal functions in cell proliferation.
The initial identification and subsequent characterization of the two novel LXR ligands and their derivative compounds was carried out in screens in three human pancreatic cancer cell and one non-transformed human pancreatic epithelial cell line in three or more replicate experiments for each cell line using the WST tetrazolium salt reduction assays.

T1 sequence (P55055 whole entry): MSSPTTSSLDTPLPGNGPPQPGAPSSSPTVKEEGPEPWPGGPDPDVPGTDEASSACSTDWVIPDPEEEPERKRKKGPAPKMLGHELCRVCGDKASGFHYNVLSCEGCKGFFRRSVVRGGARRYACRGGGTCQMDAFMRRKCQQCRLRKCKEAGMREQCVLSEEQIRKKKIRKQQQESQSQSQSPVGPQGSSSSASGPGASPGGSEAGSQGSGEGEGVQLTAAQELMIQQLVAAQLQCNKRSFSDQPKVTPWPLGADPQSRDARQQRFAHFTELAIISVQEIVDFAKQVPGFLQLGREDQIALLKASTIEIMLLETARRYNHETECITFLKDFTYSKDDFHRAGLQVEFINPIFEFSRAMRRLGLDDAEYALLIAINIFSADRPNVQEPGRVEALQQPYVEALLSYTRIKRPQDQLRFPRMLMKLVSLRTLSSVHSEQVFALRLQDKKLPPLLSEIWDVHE

Consider `O=c1cc(-c2ccccc2)nc(Nc2cccc(C(F)(F)F)c2)[nH]1` [Compound 1E5, 6-phenyl-2-{[3-(trifluoromethyl)phenyl]amino}-3,4-dihydropyrimidin-4-one], for which, in the assay with human PDAC cell lines, the “potency in response curves compared to GW3965” value was “more potent activity as compared to GW3965”. In addition, on LXR proteins, the LXR protein levels entry is “decreased LXR protein levels”. Further, the “LXR protein levels (degradation)” value in the assay on LXR in MDA-MB-231 cells was “degraded LXR”. Moreover, in [1], the “LXR protein levels (degradation)” value was “act as degraders of LXR proteins”. Besides, in the assay on pancreatic cancer cells, the “glutamate levels (mass spectroscopy)” value is on record as “decreases in glutamate levels”; the glutamine biosynthesis entry is reported as “inhibited glutamine biosynthesis”; the “level of glutathione (GSH)” value was “decreased level of GSH”; the “levels of TCA cycle intermediates (alpha-KG, citrate and fumarate)” value is “downregulated”. The “levels of asparagine and aspartate” value in the assay with pancreatic cancer cells is reported as “decreased the levels”. Moreover, in the assay on pancreatic cancer cells (PANC-1), the “levels of polyamine metabolites” value is “depletion of spermidine and spermine and accumulation of putrescine, N-acetylspermidine and N-acetylspermine”; the “levels of polyunsaturated fatty acids (PUFAs)” value was “increased levels of PUFAs”. For the same molecule, in the assay with PDAC cells (1E5 plus glutaminase inhibitor BPTES), the “glutamate levels, combination treatment with BPTES” value is reported as “synergistic effects on reducing the glutamate levels”. In addition, in the assay on PDAC cells (treated for 48 hours), the “intracellular levels of glutamate” value is “significantly reduced”. In addition, in the assay with MCF-7, the “expression of LXR target genes” value is on record as “generally down-regulated”. For the same molecule, the “expression of LXR target genes” value in the assay on MDA-MB-231 is on record as “generally down-regulated”. Also, the “basal expression of SREBF1c” value in assay [2] (all three pancreatic cancer cell lines) is given as “disrupted”. In [2] (pancreatic cancer cells), the “expression of FASN, SCD, and ACC” value is on record as “decreased the expression”. Further, in assay [2] (three pancreatic cancer cell lines), the “expression of LXR target genes” value was “reducing the expression of LXR target genes”. Besides, the “human pancreatic cancer cells growth” value in the assay on PDAC cell lines is on record as “effective in inhibiting human pancreatic cancer cells growth”.

Values taken from patent publication US20220273658A1, “SMALL MOLECULE LIVER X RECEPTOR MODULATORS AND USES THEREOF” (University of Houston System, priority 2019, published 2022).
